For 55 compounds, Eff. %, LogP and chromatographic logP results are on record in patent US9326515B2, “Fungicidal 3-[(1,3-thiazol-4-ylmethoxyimino)(phenyl)methyl]-2-substituted-1,2,4-oxadiazol-5(2H)-one derivatives” (BAYER INTELLECTUAL PROPERTY GMBH, priority 2011, dated 2016).

By LogP is commonly meant a log measure of how a compound divides between an organic and an aqueous phase. Read a low LogP as lower lipophilicity. For orientation: chromatographic logP means a lipophilicity value derived from retention on a column. Lower therefore signals a more hydrophilic compound.

One data set concerns Phytophthora infestans. The data set is classed as in vivo. As to conditions: 100 ppm of active ingredient, spray on young tomato plants, inoculated one day after treatment, evaluated 7 days after inoculation.
In another data set the test system is Plasmopara viticola. In words: Example I: in vivo preventive test on Plasmopara viticola (grapevines). The settings on record: 10 ppm of active ingredient, spray on young grapevine plants, inoculated after spray coating dried, evaluated 6 days after inoculation. As for the experimental part: To produce a suitable preparation of active compound, 1 part by weight of active compound is mixed with the stated amounts of solvent and emulsifier, and the concentrate is diluted with water to the desired concentration.
To test for preventive activity, young plants are sprayed with the preparation of active compound at the stated rate of application. After the spray coating has dried on, the plants are inoculated with an aqueous spore suspension of Plasmopara viticola and then remain for 1 day in an incubation cabinet at approximately 20° C. and a relative atmospheric humidity of 100%. The plant is subsequently placed for 4 days in a greenhouse at approximately 21° C. and a relative atmospheric humidity of approximately 90%. The plants are then misted and placed for 1 day in an incubation cabinet.
The test is evaluated 6 days after the inoculation. 0% means an efficacy which corresponds to that of the untreated control, while an efficacy of 100% means that no disease is observed.

For data set [1] the following is noted: pH 2.7.
The conditions of data set [2]: pH 2.7. This is another data set of the same source.

Consider `CCCCCCC(=O)Nc1nc(CON=C(c2ccccc2)c2nc(=O)on2C)cs1` [Example 1], for which the values for the Eff. % in the data set with Phytophthora infestans and in the data set on Plasmopara viticola were 87% and 90%, respectively. Besides, in data set [1], the LogP was 3.55.
`CC(Oc1ccccc1)C(=O)Nc1nc(CON=C(c2ccccc2)c2nc(=O)on2C)cs1` (centres unmarked) [Example 2]: the Eff. % in the data set with Phytophthora infestans and with Plasmopara viticola was 97% in each case. In addition, the LogP in data set [1] was 3.15.
For the compound `Cn1oc(=O)nc1C(=NOCc1csc(NC(=O)C(C)(C)C)n1)c1ccccc1` [Example 3], the Eff. % in the data set with Phytophthora infestans was determined as 84%. The compound also came in with a LogP in data set [1] of 2.84.
Regarding `Cn1oc(=O)nc1/C(=N\OCc1csc(N)n1)c1ccccc1` [Example 4, 3-[(Z)-{[(2-amino-1,3-thiazol-4-yl)methoxy]imino}(phenyl)methyl]-2-methyl-1,2,4-oxadiazol-5(2H)-one], the chromatographic logP in data set [2] worked out at 1.07.
The compound `Cn1oc(=O)nc1C(=NOCc1csc(NC(=O)OC2CC3CCC2C3)n1)c1ccccc1` (centres unmarked) [Example 6] yielded an Eff. % in the data set with Phytophthora infestans of 90%. Further, the LogP in data set [1] is 3.60.
As for `CCCCC(CC)COC(=O)Nc1nc(CON=C(c2ccccc2)c2nc(=O)on2C)cs1` (centres unmarked) [Example 7], the Eff. % in the data set on Phytophthora infestans was found to be 85%. The compound further had a LogP in data set [1] of 4.56.
Consider `Cn1oc(=O)nc1C(=NOCc1csc(NC(=O)COc2ccccc2)n1)c1ccccc1` [Example 8], for which the Eff. % is 95% with Phytophthora infestans and 97% in the data set with Plasmopara viticola. In data set [1], the LogP came out at 2.98.
In the case of `C#CCC(C)OC(=O)Nc1nc(CON=C(c2ccccc2)c2nc(=O)on2C)cs1` (centres unmarked) [Example 10], the Eff. % was 93% in the data set with Phytophthora infestans and 88% in the data set with Plasmopara viticola. The compound also showed a LogP in data set [1] of 2.80.
In the case of `C#CCCOC(=O)Nc1nc(CON=C(c2ccccc2)c2nc(=O)on2C)cs1` [Example 11], the Eff. % was 70% in the data set on Phytophthora infestans and 78% with Plasmopara viticola. Further, in data set [1], the LogP was determined as 2.56.
For `CCCCCC(=O)Nc1nc(CON=C(c2ccccc2)c2nc(=O)on2C)cs1` [Example 12], the Eff. % in the data set on Phytophthora infestans came to 92%; with Plasmopara viticola, 94%. This compound gave a LogP in data set [1] of 3.19.
In the case of `CCCCCCCC(=O)Nc1nc(CON=C(c2ccccc2)c2nc(=O)on2C)cs1` [Example 13], the values for the Eff. % with Phytophthora infestans and in the data set on Plasmopara viticola were 95% and 99%, respectively. The same compound displayed a lipophilicity (LogP) in data set [1] of 3.94.
Take `Cn1oc(=O)nc1C(=NOCc1csc(NC(=O)OCCc2ccccc2)n1)c1ccccc1` [Example 14]: the results for the Eff. % with Phytophthora infestans and in the data set on Plasmopara viticola were 95% and 99%, respectively. The lipophilicity (LogP) in data set [1] amounted to 3.35.
`Cn1oc(=O)nc1C(=NOCc1csc(NC(=O)c2ccccc2)n1)c1ccccc1` [Example 15]: the Eff. % in the data set with Phytophthora infestans turned out to be 92%. The LogP in data set [1] stood at 2.88.
As to `Cn1oc(=O)nc1C(=NOCc1csc(NC(=O)C2(C)CC2)n1)c1ccccc1` [Example 16], the Eff. % amounted to 97% with Phytophthora infestans and 91% in the data set on Plasmopara viticola. The LogP in data set [1] was found to be 2.66.
In the same order, the values of `Cn1oc(=O)nc1C(=NOCc1csc(NC(=O)COCc2ccccc2)n1)c1ccccc1` [Example 17] are 100%, 94% and 3.06.
The like results for `Cn1oc(=O)nc1C(=NOCc1csc(NC(=O)SC(C)(C)C)n1)c1ccccc1` [Example 18] were, in that order, 97%, 93% and 3.44.
Regarding `Cn1oc(=O)nc1C(=NOCc1csc(NC(=O)OC(C)(C)C)n1)c1ccccc1` [Example 20], the Eff. % was determined as 92% in the data set on Phytophthora infestans and 94% in the data set on Plasmopara viticola. This compound also gave a LogP in data set [1] of 3.06.
The like results for `Cc1cccc2c1OC(C(=O)Nc1nc(CON=C(c3ccccc3)c3nc(=O)on3C)cs1)CO2` (centres unmarked) [Example 25] were, in that order, 92%, 96% and 3.42.
In the same order, the values of `Cn1oc(=O)nc1C(=NOCc1csc(NC(=O)C2CCc3ccccc3C2)n1)c1ccccc1` (centres unmarked) [Example 26] are 92%, 94% and 3.55.
As to `Cc1ccc(OC(C)C(=O)Nc2nc(CON=C(c3ccccc3)c3nc(=O)on3C)cs2)cc1` (centres unmarked) [Example 27], the values for the Eff. % with Phytophthora infestans and in the data set on Plasmopara viticola were 95% and 96%, respectively. In addition, in data set [1], the LogP came out at 3.46.
As to `C=CCCCCOC(=O)Nc1nc(CON=C(c2ccccc2)c2nc(=O)on2C)cs1` [Example 64], in data set [1], the lipophilicity (LogP) was 3.51.
On to `Cn1oc(=O)nc1C(=NOCc1csc(NC(=O)Cc2ccccc2)n1)c1ccccc1` [Example 65], for which the LogP in data set [1] is given as 2.82.
`Cn1oc(=O)nc1C(=NOCc1csc(NC(=O)OCCCC2CCCC2)n1)c1ccccc1` [Example 66]: the LogP in data set [1] stood at 4.36.
Regarding `C#CCOC(=O)Nc1nc(CON=C(c2ccccc2)c2nc(=O)on2C)cs1` [Example 67], the LogP in data set [1] is reported as 2.49.
`Cc1cccc(C(=O)Nc2nc(CON=C(c3ccccc3)c3nc(=O)on3C)cs2)c1` [Example 68] returned a LogP in data set [1] of 3.19.
`CCCCCOC(=O)Nc1nc(CON=C(c2ccccc2)c2nc(=O)on2C)cs1` [Example 69] gave a LogP in data set [1] of 3.51.
For `COc1ccc(CC(=O)Nc2nc(CON=C(c3ccccc3)c3nc(=O)on3C)cs2)cc1` [Example 70], the LogP in data set [1] came to 2.80.
In data set [1], `COc1cccc(C(=O)Nc2nc(CON=C(c3ccccc3)c3nc(=O)on3C)cs2)c1` [Example 71] showed a LogP of 2.98. The LogP values of the last two compounds are within 0.2 log units of each other.
`CCC#CCOC(=O)Nc1nc(CON=C(c2ccccc2)c2nc(=O)on2C)cs1` [Example 72]: the LogP in data set [1] turned out to be 2.98.
`Cn1oc(=O)nc1C(=NOCc1csc(NC(=O)OCC#Cc2ccccc2)n1)c1ccccc1` [Example 73]: the LogP in data set [1] was 3.44.
In the case of `Cn1oc(=O)nc1C(=NOCc1csc(NC(=O)C2(C)CCCCC2)n1)c1ccccc1` [Example 74], the LogP in data set [1] worked out at 3.58.
`Cn1oc(=O)nc1C(=NOCc1csc(NC(=O)Cc2cccs2)n1)c1ccccc1` [Example 75]: the log partition coefficient (LogP) in data set [1] came to 2.71.
`C=CCC(C)OC(=O)Nc1nc(CON=C(c2ccccc2)c2nc(=O)on2C)cs1` (centres unmarked) [Example 76] gave a LogP in data set [1] of 3.15.
`CC=CCCCOC(=O)Nc1nc(CON=C(c2ccccc2)c2nc(=O)on2C)cs1` [Example 77] had a LogP in data set [1] of 3.55.
`Cn1oc(=O)nc1C(=NOCc1csc(NC(=O)OCCC2CC2)n1)c1ccccc1` [Example 78]: in data set [1], the LogP came to 3.15.
With `Cn1oc(=O)nc1C(=NOCc1csc(NC(=O)OCCCC2CC2)n1)c1ccccc1` [Example 79], the log partition coefficient (LogP) in data set [1] was 3.51.
`CC(CC1CC1)OC(=O)Nc1nc(CON=C(c2ccccc2)c2nc(=O)on2C)cs1` (centres unmarked) [Example 80] registered a LogP in data set [1] of 3.42. This LogP and that of the compound before are within 0.2 log units of each other.
Take `CC#CCC(C)OC(=O)Nc1nc(CON=C(c2ccccc2)c2nc(=O)on2C)cs1` (centres unmarked) [Example 81]: in data set [1], the log partition coefficient (LogP) was found to be 3.06.
For `Cn1oc(=O)nc1C(=NOCc1csc(NC(=O)OCCCCC(F)(F)F)n1)c1ccccc1` [Example 82], in data set [1], the log partition coefficient (LogP) is reported as 3.27.
In turn, `Cn1oc(=O)nc1C(=NOCc1csc(NC(=O)OCCCC2CCCCC2)n1)c1ccccc1` [Example 83] returned a LogP in data set [1] of 4.71.
On the same count and under the same terms, then `COc1cccc(C(=NOCc2csc(NC(=O)COc3ccccc3)n2)c2nc(=O)on2C)c1` [Example 84], with 3.02; and `COc1cccc(C(=NOCc2csc(NC(=O)OCCc3ccccc3)n2)c2nc(=O)on2C)c1` [Example 85], with 3.39; and `COc1cccc(C(=NOCc2csc(NC(=O)CC3CCCC3)n2)c2nc(=O)on2C)c1` [Example 86], with 3.25.
Turning to `CCC(C)(C)C(=O)Nc1nc(CON=C(c2ccccc2)c2nc(=O)on2C)cs1` [Example 87], in data set [1], the lipophilicity (LogP) is recorded as 3.13.
Still for that read-out and setting: in the case of `Cn1oc(=O)nc1C(=NOCc1csc(NC(=O)OCC2CC2)n1)c1ccccc1` [Example 88] it was 2.84; in that of `Cn1oc(=O)nc1C(=NOCc1csc(NC(=O)c2csc3ccccc23)n1)c1ccccc1` [Example 89], 3.57.
In the case of `Cn1oc(=O)nc1C(=NOCc1csc(NC(=O)C2CCCCC2)n1)c1ccccc1` [Example 90], in data set [1], the log partition coefficient (LogP) turned out to be 3.19.
Turning to `Cn1oc(=O)nc1C(=NOCc1csc(NC(=O)c2ccc(F)cc2)n1)c1ccccc1` [Example 91], the LogP in data set [1] is on record as 3.00.
`CC(OC(=O)Nc1nc(CON=C(c2ccccc2)c2nc(=O)on2C)cs1)C(C)(C)C` (centres unmarked) [Example 92] had a LogP in data set [1] of 3.65.
For `Cn1oc(=O)nc1/C(=N\OCc1csc(NC(=O)OCCCCl)n1)c1ccccc1` [Example 93], the LogP in data set [1] is 2.80.
Regarding `C=C(C)COC(=O)Nc1nc(CO/N=C(/c2ccccc2)c2nc(=O)on2C)cs1` [Example 94], the LogP in data set [1] is on record as 2.92.
For `CC(OC(=O)Nc1nc(CO/N=C(/c2ccccc2)c2nc(=O)on2C)cs1)C1CCCC1` (centres unmarked) [Example 95], the LogP in data set [1] is given as 3.85.
For `Cn1oc(=O)nc1/C(=N\OCc1csc(NC(=O)OCc2ccccc2)n1)c1ccccc1` [Example 96], the LogP in data set [1] came out at 3.17.
`COc1ccc(OC(=O)Nc2nc(CO/N=C(/c3ccccc3)c3nc(=O)on3C)cs2)cc1` [Example 97] had a LogP in data set [1] of 2.94.
As to `CCN(O)C(=N)/C(=N\OCc1csc(NC(=O)COc2ccccc2)n1)c1ccccc1` [Example V-1], in data set [1], the LogP stood at 2.42.
